Experimental data taken from paper PMC11354392, “Molecular Characteristics of the Malate Dehydrogenase (MDH) Gene Family in Spirometra mansoni (Cestoda: Diphyllobothriidea)” (International Journal of Molecular Sciences, 2024).
pKi: −log10 of the molar value.

Legend:
rSmMDH1 [1] = tested on: T1, rSmMDH1; test: absorbance […] nm, Lineweaver-Burk; assay type: biochemical, Spirometra mansoni; details: apparent
T1 construct: gene SmMDH1

rSmMDH1 [2] = target: T1, rSmMDH1; test: absorbance […] nm, Lineweaver-Burk secondary plot of […]/Vmax; assay type: biochemical, Spirometra mansoni; details: forward reaction (oxaloacetate reduction, NADH); 100 mM Tris-HCl pH 7.5, 37 °C; reversible, binds enzyme-substrate complex

NC(=O)c1ccc[n+]([C@@H]2O[C@H](COP(=O)(O)OP(=O)(O)OC[C@H]3O[C@@H](n4cnc5c(N)ncnc54)[C@H](O)[C@@H]3O)[C@@H](O)[C@H]2O)c1 [NAD]
Km (rSmMDH1 [1]; reverse reaction, malic acid co-substrate (methods print lactate), 100 mM Tris-HCl pH 8.6, 37 °C): 1950 µM

O=C(O)CC(=O)C(=O)O [oxaloacetic acid]
Km (rSmMDH1 [1]; forward reaction, NADH co-substrate, 100 mM Tris-HCl pH 7.5, 37 °C, tested 1-10 mM): 63500 µM

O=C(O)C[C@H](O)C(=O)O [malic acid]
Km (rSmMDH1 [1]; reverse reaction, NAD co-substrate, 100 mM Tris-HCl pH 8.6, 37 °C): 1190 µM

NC(=O)C1=CN([C@@H]2O[C@H](COP(=O)(O)OP(=O)(O)OC[C@H]3O[C@@H](n4cnc5c(N)ncnc54)[C@H](O)[C@@H]3O)[C@@H](O)[C@H]2O)C=CC1 [NADH]
Km (rSmMDH1 [1]; forward reaction, oxaloacetate co-substrate, 100 mM Tris-HCl pH 7.5, 37 °C): 1750 µM

NC(=S)c1cccnc1 [thionicotinamide]
pKi (rSmMDH1 [2]): 3.84
